The target in this experiment is T1, EI^Ntr (Escherichia coli, UniProt P37177).
T1 sequence (P37177 1-748): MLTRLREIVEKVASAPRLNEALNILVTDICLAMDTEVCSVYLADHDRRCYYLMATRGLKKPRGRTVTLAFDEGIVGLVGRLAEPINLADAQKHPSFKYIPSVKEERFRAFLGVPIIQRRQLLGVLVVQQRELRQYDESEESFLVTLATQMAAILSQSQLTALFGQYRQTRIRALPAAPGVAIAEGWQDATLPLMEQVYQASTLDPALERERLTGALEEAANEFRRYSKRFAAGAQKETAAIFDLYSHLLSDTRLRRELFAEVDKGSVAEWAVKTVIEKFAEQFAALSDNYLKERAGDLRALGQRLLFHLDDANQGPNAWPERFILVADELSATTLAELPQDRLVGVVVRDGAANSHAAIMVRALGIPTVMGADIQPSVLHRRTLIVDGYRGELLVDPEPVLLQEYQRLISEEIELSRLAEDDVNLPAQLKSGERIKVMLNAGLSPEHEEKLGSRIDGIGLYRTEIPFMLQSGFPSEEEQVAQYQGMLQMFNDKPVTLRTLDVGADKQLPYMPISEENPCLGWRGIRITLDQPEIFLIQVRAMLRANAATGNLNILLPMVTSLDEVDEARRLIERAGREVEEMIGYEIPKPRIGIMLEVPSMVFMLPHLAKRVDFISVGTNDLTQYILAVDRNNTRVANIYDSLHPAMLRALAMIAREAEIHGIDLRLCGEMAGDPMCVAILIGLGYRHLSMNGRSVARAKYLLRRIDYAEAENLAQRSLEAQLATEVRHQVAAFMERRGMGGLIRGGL
As to the kind of experiment: intrinsic tryptophan fluorescence quenching. In kind it is binding.

The compound `NC(=O)CC[C@H](N)C(=O)O` [glutamine] had a Kd of 700 µM.
As for `O=C(O)CCC(=O)C(=O)O` [α-ketoglutarate], the figure is 3300 µM.

The record behind these values is PMC3633653 (Molecular microbiology, 2013).
